Target: T1, human recombinant mGluR5 (Homo sapiens, UniProt P41594)
T1 construct: expressed in transfected cells; host or cells: HEK 293 cell line; cultured with tetracycline, hygromycin and geneticin; tetracycline withdrawn 3-7 days before the assay
Test: positive modulation of mGluR5, calcium based FLIPR assay in HEK 293 cells
Settings: HEK 293 cell line expressing human recombinant mGluR5; peak height of Ca release fluorescence signal after glutamate at approximately 5% basal stimulation; nonlinear regression
Experimental: The positive modulation of mGluR5 is measured in a HEK 293 cell line expressing human recombinant mGluR5 and is detected with calcium based FLIPR assay. The cells are cultured with DMEM supplemented with 10% FCS, 2 μg/mL tetracycline, 100 μg/mL hygromycin and 500 μg/mL gneticin. The cell culture media is exchanged for tetracycline-free cell culture media 3-7 days before the assay. One day before the assay the cell culture medium is exchanged to DMEM without glutamine and phenol red and supplemented with 10% FCS, 100 μg/mL hygromycin and 500 μg/mL geneticin. On the assay day, the medium of the subconfluent cultures is removed and the cells are detached by addition of 2.5 ml EDTA(0.02%) per 175 cm2 culture flask for 1 minute. The cells are resuspend in Ringer solution (140 mM NaCl, 5 mM KCl, 2.5 mM CaCl2, 1.5 mM MgCl2, 5 mM Glucose, 10 mM Hepes; adjusted to pH 7.4 with NaOH), pooled and Ringer solution added to adjust the volume to 50 mL. The cell suspension is centrifuged for 5 min at 1500 U/min (425 g). The supernatant is removed and the cells washed a second time with 50 ml fresh Ringer solution and centrifuged again as before. The supernatant is again removed and the pellet resuspended in Ringer solution to 1,000,000 cells/ml (1×10^6 cells/mL). The cells are plated onto BD BioCoat Poly-D-Lysine 384 well plates (20.000 cells/well; 20 μl/well). The lid covered plates are then incubated until use at 37° C./10% CO2. For dye loading, 20 μl of Calcium-4 assay kit solution (prepared according to the manufacturer's description in Ringer solution) are added to the cells and the plates are incubated for 80 min 37° C. and then 10 min at room temperature.
Controls, Compound Dilution and Assay Execution:
Each assay plate contained wells with “high” and “low” controls:
Low controls 1% DMSO/ringer solution+basal glutamate activation (defined as 100% CTL).
High controls 10 μM CDPPB+basal glutamate activation (defined as 200% CTL).
Test compounds are dissolved and diluted in DMSO to 100-fold the desired concentrations. In a second step, the compounds are diluted in Ringer solution such that the compounds are 4-fold more concentrated than the desired final assay concentration. The final DMSO concentration was 1%.
20 μl of each compound solution are then transferred to the assay plate and the Ca2+ kinetic is measured to determine any intrinsic compound activity. After 5 min incubation in the FLIPR device, the second stimulation with 20 μl of glutamate in Ringer solution (glutamate concentration adjusted to approximately 5% basal stimulation of the maximal possible glutamate effect) is added and the kinetic Ca2+ response of the wells was measured for the modulation effect.
The peak height of the Ca release related fluorescence signal (9-66) is used for the EC50. The EC50 of the modulation is calculated over a nonlinear regression with GraphPad Prism (Table 1).

T1 sequence (P41594 21-1212): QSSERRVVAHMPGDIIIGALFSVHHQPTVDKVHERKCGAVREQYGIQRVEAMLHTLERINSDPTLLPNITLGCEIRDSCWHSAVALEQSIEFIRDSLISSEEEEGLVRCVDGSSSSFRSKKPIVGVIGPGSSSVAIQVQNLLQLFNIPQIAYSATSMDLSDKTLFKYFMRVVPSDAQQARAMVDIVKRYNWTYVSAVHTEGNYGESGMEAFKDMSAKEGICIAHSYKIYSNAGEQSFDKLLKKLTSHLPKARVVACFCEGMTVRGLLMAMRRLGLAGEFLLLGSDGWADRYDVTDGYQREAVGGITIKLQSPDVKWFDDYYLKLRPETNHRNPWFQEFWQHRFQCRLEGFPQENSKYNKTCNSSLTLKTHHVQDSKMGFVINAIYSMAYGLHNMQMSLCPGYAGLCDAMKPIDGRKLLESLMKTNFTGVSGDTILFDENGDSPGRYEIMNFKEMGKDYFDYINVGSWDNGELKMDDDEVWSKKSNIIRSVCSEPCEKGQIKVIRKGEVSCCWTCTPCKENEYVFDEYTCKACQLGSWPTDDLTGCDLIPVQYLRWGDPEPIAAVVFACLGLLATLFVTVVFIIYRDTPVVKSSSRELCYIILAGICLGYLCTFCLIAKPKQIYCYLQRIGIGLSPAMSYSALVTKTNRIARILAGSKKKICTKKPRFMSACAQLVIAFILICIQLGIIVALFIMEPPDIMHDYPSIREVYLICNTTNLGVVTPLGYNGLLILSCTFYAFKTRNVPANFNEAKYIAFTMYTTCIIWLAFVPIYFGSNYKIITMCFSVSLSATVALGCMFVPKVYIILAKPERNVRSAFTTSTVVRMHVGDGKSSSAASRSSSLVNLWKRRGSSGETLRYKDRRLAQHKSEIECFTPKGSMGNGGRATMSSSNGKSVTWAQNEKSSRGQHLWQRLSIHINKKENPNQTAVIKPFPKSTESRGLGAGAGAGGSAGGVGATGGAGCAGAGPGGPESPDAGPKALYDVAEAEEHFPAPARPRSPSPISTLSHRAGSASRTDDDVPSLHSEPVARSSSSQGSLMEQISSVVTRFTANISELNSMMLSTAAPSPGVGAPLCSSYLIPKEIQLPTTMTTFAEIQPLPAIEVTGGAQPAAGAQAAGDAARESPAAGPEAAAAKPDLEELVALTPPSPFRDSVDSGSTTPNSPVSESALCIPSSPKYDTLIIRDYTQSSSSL

Row | Structure (SMILES) | EC50 [nM]
1 | CCc1cc(-c2cccc(C)c2)nn1CC(=O)N1CCN(c2cc(OC)ccn2)CC1 [Example 7.01.96] | 168
2 | CCc1cc(-c2ccc(C)c(C)c2)nn1CC(=O)N1CCN(c2ncc(OC)cn2)CC1 [Example 7.01.99] | 129
3 | CCc1cc(-c2cccc(C)c2)nn1CC(=O)N1CCN(c2ncc(OC)cn2)CC1 [Example 7.01.100] | 126
4 | Cc1cc(-c2cc(C)n(CC(=O)N3CCN(c4ncccn4)CC3)n2)ccc1F [Example 7.01.104] | 39
5 | COCCCc1cc(-c2ccc(F)c(C)c2)nn1CC(=O)N1CCN(c2ncccn2)CC1 [Example 7.01.107] | 64
6 | COCCCc1cc(-c2ccc(F)c(C)c2)nn1CC(=O)N1CCN(c2ccccn2)CC1 [Example 7.01.108] | 1260
7 | COCCCc1cc(-c2ccc(F)c(C)c2)nn1CC(=O)N1CCN(c2cc(OC)ccn2)CC1 [Example 7.01.109] | 140
8 | COCCCc1cc(-c2ccc(F)c(C)c2)nn1CC(=O)N1CCN(c2ncc(OC)cn2)CC1 [Example 7.01.112] | 120
9 | CCc1cc(-c2cccc(Cl)c2)nn1CC(=O)N1CCN(c2ncccn2)CC1 [Example 7.01.113] | 94
10 | CCc1cc(-c2cccc(Cl)c2)nn1CC(=O)N1CCN(c2ccccn2)CC1 [Example 7.01.114] | 153
11 | CCc1cc(-c2cccc(Cl)c2)nn1CC(=O)N1CCN(c2ncc(OC)cn2)CC1 [Example 7.01.115] | 65
12 | Cc1cc(-c2cc(CC(C)C)n(CC(=O)N3CCN(c4ccccn4)CC3)n2)ccc1F [Example 7.01.117] | 28
13 | Cc1cc(-c2cc(CC(C)C)n(CC(=O)N3CCN(c4ncccn4)CC3)n2)ccc1F [Example 7.01.118] | 18
14 | Cc1cc(-c2cc(CC(C)C)n(CC(=O)N3CCN(c4ncc(F)cn4)CC3)n2)ccc1F [Example 7.01.122] | 51
15 | COc1cnc(N2CCN(C(=O)Cn3nc(-c4ccc(F)c(C)c4)cc3CC(C)C)CC2)nc1 [Example 7.01.123] | 36
16 | CCc1cccc(-c2cc(CC)n(CC(=O)N3CCN(c4ccccn4)CC3)n2)c1 [Example 7.01.128] | 204
17 | CCc1cccc(-c2cc(CC)n(CC(=O)N3CCN(c4ncc(F)cn4)CC3)n2)c1 [Example 7.01.130] | 471
18 | CCc1cccc(-c2cc(CC)n(CC(=O)N3CCN(c4ncccn4)CC3)n2)c1 [Example 7.01.131] | 59
19 | CCc1cccc(-c2cc(CC)n(CC(=O)N3CCN(c4ncc(OC)cn4)CC3)n2)c1 [Example 7.01.132] | 138
20 | Cc1ccc(-c2cc(-c3ccccc3)nn2CC(=O)N2CCN(c3ncccn3)CC2)nc1C [Example 7.01.133] | 652
21 | CCc1cc(-c2cc(C)c(F)c(C)c2)nn1CC(=O)N1CCN(c2ncccn2)CC1 [Example 7.01.138] | 230
22 | CCc1cc(-c2cc(C)c(F)c(C)c2)nn1CC(=O)N1CCN(c2ccccn2)CC1 [Example 7.01.139] | 595
23 | CCc1cc(-c2cc(C)c(F)c(C)c2)nn1CC(=O)N1CCN(c2ncc(OC)cn2)CC1 [Example 7.01.141] | 346
24 | CCc1cc(-c2cc(C)c(F)c(C)c2)nn1CC(=O)N1CCN(c2ncc(F)cn2)CC1 [Example 7.01.142] | 704
25 | O=C(Cn1nc(-c2ccccc2)cc1-c1cc(Cl)cs1)N1CCN(c2ncccn2)CC1 [Example 7.01.143] | 20
26 | CCc1cc(-c2ccc(F)c(C)c2)nn1CC(=O)N1CCN(c2cccc(OC)c2)CC1 [Example 7.01.145] | 216
27 | O=C(Cn1nc(-c2cccc(Cl)c2)cc1-c1ccccc1)N1CCN(c2ncccn2)CC1 [Example 7.01.149] | 12
28 | CCc1cc(-c2cccc(C#N)c2)nn1CC(=O)N1CCN(c2ncccn2)CC1 [Example 7.01.160] | 250
29 | CCc1cc(-c2cccc(C#N)c2)nn1CC(=O)N1CCN(c2ccccn2)CC1 [Example 7.01.161] | 297

Second part, the molecule after the results:

Row | EC50 [nM] | Structure (SMILES)
30 | 181 | CCc1cc(-c2cccc(C)c2)nn1CC(=O)N1CCN(c2cc(OC)ncn2)CC1 [Example 7.01.97]
31 | 13 | Cc1ccc(-c2cc(-c3ccccc3)n(CC(=O)N3CCN(c4ncccn4)CC3)n2)cc1C [Example 7.01.98]
32 | 17 | COc1cc(N2CCN(C(=O)Cn3nc(-c4ccc(C)c(C)c4)cc3-c3ccccc3)CC2)ncn1 [Example 7.01.101]
33 | 20 | Cc1ccc(-c2cc(-c3ccccc3)n(CC(=O)N3CCN(c4ccccn4)CC3)n2)cc1C [Example 7.01.102]
34 | 24 | COc1cnc(N2CCN(C(=O)Cn3nc(-c4ccc(C)c(C)c4)cc3-c3ccccc3)CC2)nc1 [Example 7.01.103]
35 | 35 | Cc1ccc(-c2cc(-c3ccccc3)n(CC(=O)N3CCN(c4ccccn4)CC3)n2)nc1 [Example 7.01.106]
36 | 137 | COCCCc1cc(-c2ccc(F)c(C)c2)nn1CC(=O)N1CCN(c2cc(OC)ncn2)CC1 [Example 7.01.110]
37 | 24 | Cc1ccc(-c2cc(-c3ccccc3)n(CC(=O)N3CCN(c4ncccn4)CC3)n2)nc1 [Example 7.01.111]
38 | 89 | CCc1cc(-c2cccc(Cl)c2)nn1CC(=O)N1CCN(c2cc(OC)ncn2)CC1 [Example 7.01.116]
39 | 19 | COc1ccnc(N2CCN(C(=O)Cn3nc(-c4ccc(C)cn4)cc3-c3ccccc3)CC2)c1 [Example 7.01.119]
40 | 20 | COc1cc(N2CCN(C(=O)Cn3nc(-c4ccc(C)cn4)cc3-c3ccccc3)CC2)ncn1 [Example 7.01.120]
41 | 34 | COc1cc(N2CCN(C(=O)Cn3nc(-c4ccc(F)c(C)c4)cc3CC(C)C)CC2)ncn1 [Example 7.01.121]
42 | 8 | Cc1ccc(-c2cc(-c3ccccc3)n(CC(=O)N3CCN(c4ncccn4)CC3)n2)nc1C [Example 7.01.124]
43 | 212 | CCc1cccc(-c2cc(CC)n(CC(=O)N3CCN(c4cc(OC)ncn4)CC3)n2)c1 [Example 7.01.129]
44 | 865 | Cc1cnc(-c2cc(-c3ccccc3)nn2CC(=O)N2CCN(c3ncccn3)CC2)cc1C [Example 7.01.134]
45 | 21 | Cc1cnc(-c2cc(-c3ccccc3)n(CC(=O)N3CCN(c4ncccn4)CC3)n2)cc1C [Example 7.01.135]

Row | EC50 [nM] | Structure (SMILES)
46 | 38 | Cc1cnc(-c2cc(-c3ccccc3)n(CC(=O)N3CCN(c4ccccn4)CC3)n2)cc1C [Example 7.01.136]
47 | 707 | CCc1cc(-c2cc(C)c(F)c(C)c2)nn1CC(=O)N1CCN(c2cc(OC)ncn2)CC1 [Example 7.01.140]
48 | 57 | COc1cccc(N2CCN(C(=O)Cn3nc(-c4ccc(F)c(C)c4)cc3-c3ccccc3)CC2)c1 [Example 7.01.144]
49 | 19 | COc1cnc(N2CCN(C(=O)Cn3nc(-c4cccc(Cl)c4)cc3-c3ccccc3)CC2)nc1 [Example 7.01.147]
50 | 20 | COc1cc(N2CCN(C(=O)Cn3nc(-c4cccc(Cl)c4)cc3-c3ccccc3)CC2)ncn1 [Example 7.01.148]
51 | 5 | COc1cc(-c2cc(-c3ccccc3)n(CC(=O)N3CCN(c4ncccn4)CC3)n2)ccc1F [Example 7.01.150]
52 | 19 | COc1cc(-c2cc(-c3ccccc3)n(CC(=O)N3CCN(c4ccccn4)CC3)n2)ccc1F [Example 7.01.151]
53 | 26 | COc1cc(N2CCN(C(=O)Cn3nc(-c4ccc(F)c(OC)c4)cc3-c3ccccc3)CC2)ncn1 [Example 7.01.152]
54 | 276 | COc1cc(-c2cc(-c3ccccc3)nn2CC(=O)N2CCN(c3ncccn3)CC2)ccc1F [Example 7.01.153]
55 | 11 | Cc1nc(-c2cc(-c3ccccc3)n(CC(=O)N3CCN(c4ncccn4)CC3)n2)ccc1F [Example 7.01.154]
56 | 24 | Cc1nc(-c2cc(-c3ccccc3)n(CC(=O)N3CCN(c4ccccn4)CC3)n2)ccc1F [Example 7.01.155]
57 | 33 | COc1cc(N2CCN(C(=O)Cn3nc(-c4ccc(F)c(C)n4)cc3-c3ccccc3)CC2)ncn1 [Example 7.01.156]
58 | 35 | Cc1cc(-c2cc(-c3ccccc3)n(CC(=O)N3CCN(c4ncccn4)CC3)n2)ncc1F [Example 7.01.157]
59 | 79 | Cc1cc(-c2cc(-c3ccccc3)n(CC(=O)N3CCN(c4ccccn4)CC3)n2)ncc1F [Example 7.01.158]
60 | 39 | COc1cc(N2CCN(C(=O)Cn3nc(-c4cc(C)c(F)cn4)cc3-c3ccccc3)CC2)ncn1 [Example 7.01.159]

Source: patent publication US8822464B2, “N-aryl-piperazine derivatives and their use as positive allosteric modulators of mGluR5 receptors” (Boehringer Ingelheim International GmbH, priority 2011, dated 2014)
